Assay [1] has as its system Z-138 cells. In words: Z-138 Proliferation Assay (Cell Titer Glo, 5 days). The assay is classed as cell-based. As to conditions: Homo sapiens, 120 h. The source says:
Z-138 Proliferation Assay
Z-138 suspension cells were purchased from ATCC (American Type Culture Collection, Manassas, Va.). RPMI/Glutamax medium, penicillin-streptomycin, heat inactivated fetal bovine serum were purchased from Life Technologies, Grand Island, N.Y., USA. V-bottom polypropylene 384-well plates were purchased from Greiner Bio-One, Monroe, N.C., USA. Cell culture 384-well white opaque plates were purchased from Perkin Elmer, Waltham, Mass., USA. Cell-Titer Glo® was purchased from Promega Corporation, Madison, Wis., USA. SpectraMax M5 plate reader was purchased from Molecular Devices LLC, Sunnyvale, Calif., USA.
Z-138 suspension cells were maintained in growth medium (RPMI 1640 supplemented with 10% v/v heat inactivated fetal bovine serum and cultured at 37° C. under 5% CO2. Under assay conditions, cells were incubated in assay medium (RPMI 1640 supplemented with 10% v/v heat inactivated fetal bovine serum and 100 units/mL penicillin-streptomycin) at 37° C. under 5% CO2.
For the assessment of the effect of compounds on the proliferation of the Z-138 cell line, exponentially growing cells were plated in 384-well white opaque plates at a density of 10,000 cells/ml in a final volume of 50 μl of assay medium. A compound source plate was prepared by performing triplicate nine-point 3-fold serial dilutions in DMSO, beginning at 10 mM (final top concentration of compound in the assay was 20 μM and the DMSO was 0.2%). A 100 nL aliquot from the compound stock plate was added to its respective well in the cell plate. […] After addition of compounds, assay plates were incubated for 5 days at 37° C., 5% CO2, relative humidity >90%.
Cell viability was measured by quantitation of ATP present in the cell cultures, adding 35 μl of Cell Titer Glo® reagent to the cell plates. Luminescence was read in the SpectraMax M5 microplate reader. The concentration of compound inhibiting cell viability by 50% was determined using a 4-parametric fit of the normalized dose response curves.

In assay [2] the target is T1, PRMT5/MEP50 (Homo sapiens, UniProt O14744).
T1 construct: Flag-PRMT5; made in house; host or cells: Spodoptera frugiperda (SF9), baculovirus
T1 sequence (O14744 with tags, fused parts or gaps): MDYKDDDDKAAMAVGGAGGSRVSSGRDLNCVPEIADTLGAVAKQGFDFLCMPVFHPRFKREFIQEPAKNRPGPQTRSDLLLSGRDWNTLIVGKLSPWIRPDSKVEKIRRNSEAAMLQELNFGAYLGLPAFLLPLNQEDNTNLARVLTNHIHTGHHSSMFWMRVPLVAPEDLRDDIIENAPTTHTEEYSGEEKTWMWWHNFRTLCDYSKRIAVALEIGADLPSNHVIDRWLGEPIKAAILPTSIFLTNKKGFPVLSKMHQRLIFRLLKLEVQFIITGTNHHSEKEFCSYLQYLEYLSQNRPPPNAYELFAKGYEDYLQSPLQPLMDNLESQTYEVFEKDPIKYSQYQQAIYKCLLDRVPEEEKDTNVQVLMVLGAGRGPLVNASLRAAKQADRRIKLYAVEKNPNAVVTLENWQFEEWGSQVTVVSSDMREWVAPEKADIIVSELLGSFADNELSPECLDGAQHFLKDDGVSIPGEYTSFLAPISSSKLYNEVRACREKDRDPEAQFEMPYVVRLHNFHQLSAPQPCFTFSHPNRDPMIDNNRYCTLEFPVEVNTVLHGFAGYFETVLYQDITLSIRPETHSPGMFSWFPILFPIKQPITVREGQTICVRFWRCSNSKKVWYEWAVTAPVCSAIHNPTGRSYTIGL
T1 sequence (Q9BQA1 with tags, fused parts or gaps partner limits assumed): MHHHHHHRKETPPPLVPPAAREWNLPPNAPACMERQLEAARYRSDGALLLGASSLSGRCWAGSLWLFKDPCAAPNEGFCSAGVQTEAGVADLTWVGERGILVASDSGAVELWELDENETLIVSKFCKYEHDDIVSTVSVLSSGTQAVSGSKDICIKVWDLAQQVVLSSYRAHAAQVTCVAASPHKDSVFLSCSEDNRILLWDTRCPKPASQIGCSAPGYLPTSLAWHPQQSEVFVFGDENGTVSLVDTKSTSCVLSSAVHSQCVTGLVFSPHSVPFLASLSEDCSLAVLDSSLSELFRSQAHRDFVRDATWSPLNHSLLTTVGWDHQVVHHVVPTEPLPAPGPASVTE
Briefly: PRMT5 Biochemical Assay (PRMT5/MEP50 enzyme assay on histone H4 peptide substrate, 3H-SAM Flashplate). In outline: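 Sf9-expressed Flag-PRMT5/6His-MEP50 preincubated with compound 30 min at 25 °C, then methylation of biotinylated H4 1-15 peptide started with ³H-SAM in 20 mM Bicine pH 7.6, 1 mM TCEP, 0.005% BSG, 0.002% Tween20.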

The mark [3] stands for this setting: PRMT5 biochemical assay, read-out: Biochemical IC50.

Results on 48 compounds are retold here after patent US20170198006A1, “PRMT5 INHIBITORS AND USES THEREOF” (Epizyme, Inc., priority 2014, published 2017).

pEC50, pIC50: −log10 of the molar value. Like-named read-outs stand apart in the source and are kept apart here.

`CC(=O)N1CCC(Nc2cc(C(=O)NC[C@H](O)CNCc3ccccc3)ccn2)CC1` [Compound 1-8, (R)-2-((1-acetylpiperidin-4-yl)amino)-N-(3-(benzylamino)-2-hydroxypropyl)isonicotinamide]: the pEC50 in assay [1] was under 5.30. Also, the negative logarithm of the IC50 (pIC50) in assay [2] (setting [3]) was 6.00 to 7.00.

In turn, `O=C(NC[C@H](O)CN1Cc2ccccc2C1)c1ccnc(NC2CCNC2)c1` (some centres unmarked) [Compound 1-11] showed a negative-log EC50 (pEC50) in assay [1] of under 4.70. Also, the pIC50 in assay [2] (setting [3]) was 6.00 to 7.00. On to `CCOc1c(C)cc(S(=O)(=O)NCC2CCN(Cc3ccccc3Br)CC2)cc1C` [Compound 4-3], for which the pEC50 in assay [1] was under 4.70. Moreover, in assay [2] (setting [3]), the negative logarithm of the IC50 (pIC50) was 6.00 to 7.00.

Compound `CCOc1c(C)cc(S(=O)(=O)NCC2CCN(Cc3cccc4c3OCO4)CC2)cc1C` [Compound 5-3] showed a pEC50 in assay [1] of under 4.70. For the same compound, the pIC50 in assay [2] (setting [3]) is 6.00 to 7.00.

In assay [1], `CCOc1c(C)cc(S(=O)(=O)NCC2CCN(Cc3ccc4ncccc4c3)CC2)cc1C` [Compound 6-3] gave a pEC50 of under 4.70. In assay [2] (setting [3]), the negative-log IC50 (pIC50) is 6.00 to 7.00.

Regarding `CCOc1c(C)cc(S(=O)(=O)NCC2CCN(Cc3ccccc3-c3ccccc3)CC2)cc1C` [Compound 7-3], the negative logarithm of the EC50 (pEC50) in assay [1] was under 4.70. Further, the pIC50 in assay [2] (setting [3]) is 6.00 to 7.00. Compound `O=S(=O)(NCC1CCN(Cc2ccco2)CC1)c1ccc(Oc2ccccc2)cc1` [Compound 8-3] showed a negative-log EC50 (pEC50) in assay [1] of under 4.70. Besides, the negative-log IC50 (pIC50) in assay [2] (setting [3]) was 6.00 to 7.00. In assay [1], `CCOc1c(C)cc(S(=O)(=O)NCC2CCN(Cc3c(SC(C)C)nc4sccn34)CC2)cc1C` [Compound 9-3] had a pEC50 of under 4.70. Moreover, the negative-log IC50 (pIC50) in assay [2] (setting [3]) was over 7.00. In assay [1], `CCOc1c(C)cc(S(=O)(=O)NCC2CCN(Cc3ccc4ccccc4c3)CC2)cc1C` [Compound 10-3] showed a pEC50 of under 4.70. Moreover, the pIC50 in assay [2] (setting [3]) is 6.00 to 7.00. On to `CCOc1c(C)cc(S(=O)(=O)NCC2CCN(Cc3c(-c4ccccc4)[nH]c4ccccc34)CC2)cc1C` [Compound 11-3], for which, in assay [1], the negative-log EC50 (pEC50) was under 4.70. The negative logarithm of the IC50 (pIC50) in assay [2] (setting [3]) is 6.00 to 7.00. As for `CN(C)c1cccc2c(S(=O)(=O)NC3CCN(Cc4ccco4)CC3)cccc12` [Compound 13-3], in assay [1], the pEC50 was under 4.70. Besides, the pIC50 in assay [2] (setting [3]) is 6.00 to 7.00. In the case of `COCC(C)NCCN(C)C[C@H]1O[C@@H](n2cnc3c(N)ncnc32)[C@H](O)[C@@H]1O` (some centres unmarked) [Compound 67-1], in assay [2] (setting [3]), the negative-log IC50 (pIC50) is 6.00 to 7.00.

Turning to `Cc1ccc(NC(=O)CC2NC(N3CCN(c4ccccc4)CC3)=NC2=O)cc1` (centres unmarked) [Compound 67-14], the pIC50 in assay [2] (setting [3]) was 5.00 to 6.00.

On to `CCCCNCCN(C)C[C@H]1O[C@@H](n2cnc3c(N)ncnc32)[C@H](O)[C@@H]1O` [Compound 68-1], for which the negative logarithm of the IC50 (pIC50) in assay [2] (setting [3]) was over 7.00. Still for that read-out and setting: in the case of `O=C(CC1NC(N2CCN(c3ccccc3)CC2)=NC1=O)Nc1ccccc1Br` (centres unmarked) [Compound 68-14] it was 4.30 to 5.00; in that of `Cc1ccccc1C(=O)CC1NC(N2CCN(c3ccccc3)CC2)=NC1=O` (centres unmarked) [Compound 69-14], 6.00 to 7.00; in that of `CN(CCNCCc1ccc(O)cc1)C[C@H]1O[C@@H](n2cnc3c(N)ncnc32)[C@H](O)[C@@H]1O` [Compound 70-1], over 7.00. On to `O=C(CC1NC(N2CCN(c3ccccc3)CC2)=NC1=O)NCC1CCOCC1` (centres unmarked) [Compound 70-14], for which, in assay [2] (setting [3]), the pIC50 is 4.30 to 5.00. On the same count and under the same terms, in the case of `CN(CCNC1CCC(C(C)(C)C)CC1)C[C@H]1O[C@@H](n2cnc3c(N)ncnc32)[C@H](O)[C@@H]1O` (some centres unmarked) [Compound 71-1] it was 6.00 to 7.00; in that of `COc1ccccc1C(=O)CC1NC(N2Cc3ccccc3C2)=NC1=O` (centres unmarked) [Compound 71-14], 5.00 to 6.00.

Turning to `CN(CCNCCc1c(Cl)cccc1Cl)C[C@H]1O[C@@H](n2cnc3c(N)ncnc32)[C@H](O)[C@@H]1O` [Compound 72-1], in assay [2] (setting [3]), the pIC50 was over 7.00. Consider `O=C(CC1NC(N2CC=C(c3ccccc3)CC2)=NC1=O)Nc1ccc(Cl)cc1` (centres unmarked) [Compound 72-14], for which the pIC50 in assay [2] (setting [3]) is 6.00 to 7.00. With `CN(CCNCCOc1cccc(F)c1)C[C@H]1O[C@@H](n2cnc3c(N)ncnc32)[C@H](O)[C@@H]1O` [Compound 73-1], the negative-log IC50 (pIC50) in assay [2] (setting [3]) is 6.00 to 7.00. On the same count and under the same terms, in the case of `O=C(CC1NC(N2CCC(O)(c3ccccc3)CC2)=NC1=O)Nc1ccc(Cl)cc1` (centres unmarked) [Compound 73-14] it was 6.00 to 7.00; in that of `Nc1ncnc2c1ncn2[C@@H]1O[C@H](CNCCNCCc2ccc(Cl)cc2)[C@@H](O)[C@H]1O` [Compound 74-1], over 7.00; in that of `Cc1cc(NC(=O)CC2NC(N3CCN(c4ccccc4)CC3)=NC2=O)ccc1Cl` (centres unmarked) [Compound 74-14], 5.00 to 6.00. Same read-out and setting: in the case of `CCCCOC(=O)c1ccc(NC(=O)NCCNC[C@H]2O[C@@H](n3cnc4c(N)ncnc43)[C@H](O)[C@@H]2O)cc1` [Compound 75-1] it was over 7.00; in that of `O=C(CC1NC(N2CCN(c3ccccc3)CC2)=NC1=O)c1ccccc1Br` (centres unmarked) [Compound 75-14], 6.00 to 7.00.

Consider `CC(=O)N(CCNCCc1ccc(Cl)cc1)C[C@H]1O[C@@H](n2cnc3c(N)ncnc32)[C@H](O)[C@@H]1O` [Compound 76-1], for which the negative logarithm of the IC50 (pIC50) in assay [2] (setting [3]) is 6.00 to 7.00. For `CC(C)N(CCNCCc1ccc(Cl)cc1)C[C@H]1O[C@@H](n2cnc3c(N)ncnc32)[C@H](O)[C@@H]1O` [Compound 77-1], the negative-log IC50 (pIC50) in assay [2] (setting [3]) was 6.00 to 7.00. Take `Nc1ncnc2c1ncn2[C@@H]1O[C@H](CN(CCCC(=O)OCc2ccccc2)CCNCCc2ccc(Cl)cc2)[C@@H](O)[C@H]1O` [Compound 78-1]: the pIC50 in assay [2] (setting [3]) is over 7.00. Regarding `CN(CCNCCc1ccccc1)C[C@H]1O[C@@H](n2cnc3c(N)ncnc32)[C@H](O)[C@@H]1O` [Compound 79-1], in assay [2] (setting [3]), the pIC50 was 6.00 to 7.00. Turning to `Nc1ncnc2c1ncn2[C@@H]1O[C@H](CN(CCCC(=O)O)CCNCCc2ccc(Cl)cc2)[C@@H](O)[C@H]1O` [Compound 80-1], the pIC50 in assay [2] (setting [3]) was over 7.00.

Take `Nc1ncnc2c1ncn2[C@@H]1O[C@H](CN(CCNCCc2ccc(Cl)cc2)Cc2ccccc2)[C@@H](O)[C@H]1O` [Compound 81-1]: the pIC50 in assay [2] (setting [3]) is over 7.00.

On to `CCN(CCNCCc1ccc(Cl)cc1)C[C@H]1O[C@@H](n2cnc3c(N)ncnc32)[C@H](O)[C@@H]1O` [Compound 82-1], for which the pIC50 in assay [2] (setting [3]) is 6.00 to 7.00. Still for that read-out and setting: in the case of `N=C(NC[C@H]1O[C@@H](n2cnc3c(N)ncnc32)[C@H](O)[C@@H]1O)c1ccccc1` [Compound 83-1] it was 6.00 to 7.00; in that of `Nc1ncnc2c1ncn2[C@@H]1O[C@H](CN2CCCN(c3ccccn3)CC2)[C@@H](O)[C@H]1O` [Compound 84-1], 6.00 to 7.00. Regarding `CN1CCC(N(C)C[C@H]2O[C@@H](n3cnc4c(N)ncnc43)[C@H](O)[C@@H]2O)C1` (some centres unmarked) [Compound 85-1], the negative-log IC50 (pIC50) in assay [2] (setting [3]) was 6.00 to 7.00. With `CN1CC[C@@H](N(C)C[C@H]2O[C@@H](n3cnc4c(N)ncnc43)[C@H](O)[C@@H]2O)C1` [Compound 86-1], the pIC50 in assay [2] (setting [3]) was 6.00 to 7.00. Same read-out and setting: in the case of `Nc1ncnc2c1ncn2[C@@H]1O[C@H](CSC[C@H](N)C(=O)O)[C@@H](O)[C@H]1O` [Compound 88-1] it was 6.00 to 7.00. Take `NCCCSC[C@H]1O[C@@H](n2cnc3c(N)ncnc32)[C@H](O)[C@@H]1O` [Compound 89-1]: the pIC50 in assay [2] was over 7.00. For the compound `Nc1ncnc2c1ncn2[C@@H]1O[C@H](CSCCC(N)CO)[C@@H](O)[C@H]1O` (some centres unmarked) [Compound 90-1], the pIC50 in assay [2] (setting [3]) is over 7.00.

For the compound `Nc1ncnc2c1ncn2[C@@H]1O[C@H](CSCC[C@H](N)CO)[C@@H](O)[C@H]1O` [Compound 91-1, (2S, 3S, 4R, 5R)-2-((((S)-3-amino-4-hydroxybutyl)thio)methyl)-5-(6-amino-9H-purin-9-yl)tetrahydrofuran-3,4-diol], the pIC50 in assay [2] (setting [3]) is over 7.00. Turning to `O=C1c2ccccc2C(=O)N1CCCSC[C@H]1C[C@@H](n2ccc3cncnc32)[C@H](O)[C@@H]1O` [Compound 93-1], in assay [2] (setting [3]), the pIC50 is 6.00 to 7.00.

For the compound `CCSC[C@H]1O[C@@H](n2cnc3c(N)ncnc32)[C@H](O)[C@@H]1O` [Compound 94-1], the negative logarithm of the IC50 (pIC50) in assay [2] (setting [3]) was 6.00 to 7.00. For the compound `Nc1ncnc2c1ncn2[C@@H]1O[C@H](CSCCCC(=O)O)[C@@H](O)[C@H]1O` [Compound 95-1], the pIC50 in assay [2] (setting [3]) is 6.00 to 7.00.

As for `CSC[C@H]1O[C@@H](n2cnc3c(N)ncnc32)[C@H](O)[C@@H]1O` [Compound 96-1], the pIC50 in assay [2] (setting [3]) is 6.00 to 7.00.

Consider `CN(CCCN)C[C@H]1O[C@@H](n2cnc3c(N)ncnc32)[C@H](O)[C@@H]1O` [Compound 97-1], for which, in assay [2] (setting [3]), the negative logarithm of the IC50 (pIC50) was over 7.00.
